In PMC12030059, “Mechanistic Advances in the Therapeutic Application of Bixin for Lung Inflammation In Vitro and In Vivo” (Pharmaceuticals, 2025):

Key:
[1] = PAMPA-GIT permeability assay; type: in vitro ADME; settings: for Experimental Fa: absorbed fraction; for Papp: read-out: Experimental Pe; for Classification (intestinal permeability): by absorbed fraction
Source text: The parallel artificial membrane permeability assay (PAMPA) utilizes a 96-well plate system in a “sandwich” format, where one plate is positioned above another (PAMPA). The upper plate, known as the donor compartment, contains the compounds (test or control) dissolved in a buffered solution. […] The lipid composition of the PVDF filter varies depending on the type of permeability test. For gastrointestinal tract (GIT) permeability assessments, L-α-soy phosphatidylcholine in dodecane is used. Optical density values are measured at specified wavelengths for each compound and compared against controls. For GIT permeability, the absorbed fraction (Fa%) and permeability (Pe) are determined. […] Compounds for these assays were diluted from a 10 mM stock solution. These assays were conducted using a 1 mg/mL stock solution per compound.

[2] = ref C. Zhu et al. Eur. J. Med. Chem. 37 (2002) 399–407 [22], cited from earlier work
[3] = L-α-soy phosphatidylcholine in dodecane

| SMILES | Experimental Pe [1, 3] | Experimental Fa [1] | Papp [1, 3] | Classification (intestinal permeability) [1] | Literature Fa ([2]; absorbed fraction) | Literature Pe ([2]; artificial membrane permeability) |
| --- | --- | --- | --- | --- | --- | --- |
| Nc1nc2c(ncn2COCCO)c(=O)[nH]1 [Acyclovir, acyclovir] | 0.36 10^−6 cm/s | 12.64% |  |  |  |  |
| CO/N=C(\C(=O)N[C@@H]1C(=O)N2C(C(=O)O)=C(CSc3nc(=O)c(=O)[nH]n3C)CS[C@H]12)c1csc(N)n1 [Ceftriaxone, ceftriaxone] |  | 18.19% | 0.53 ×10⁻⁶ cm/s | Low (low (0–29%)) | 1% | 0.1 10^−6 cm/s |
| O=c1ccc2ccccc2o1 [Coumarin, coumarin] |  | 99.99% | 25.2 ×10⁻⁶ cm/s | High (high (70–100%)) |  |  |
| CCn1cc(C(=O)O)c(=O)c2cc(F)c(N3CCNCC3)cc21 [Norfloxacin, norfloxacin] |  |  | 1.56 ×10⁻⁶ cm/s | Medium (medium (30–69%)) |  |  |
